Assay results published in patent US20050070510A1, “Substituted tetracycline compounds as synergistic antifungal agents” (Paratek Pharmaceuticals, Inc., priority 2001, published 2005).

tested on: COS-1 cells; experiment: In vitro mammalian cytotoxicity assay (Resazurin)

Row | SMILES | In Vitro Cytotoxicity
1 | CN(C)[C@@H]1C(O)=C(C(N)=O)C(=O)[C@@]2(C#N)C(O)=C3C(=O)c4c(O)ccc(-c5ccc6c(c5)OCO6)c4C[C@@]3(N)C[C@@]12N [EO] | ** (toxicities less than 25 μg/mL are represented by **)
2 | CN(C)c1cc(CNCc2ccccc2)c(O)c2c1C[C@@]1(N)C[C@@]3(N)[C@H](N(C)C)C(O)=C(C(N)=O)C(=O)[C@@]3(C#N)C(O)=C1C2=O [TH] | * (toxicities greater than >25 μg/ml are represented by *)
3 | COc1ccc(C=O)cc1-c1ccc(O)c2c1C[C@@]1(N)C[C@@]3(N)[C@H](N(C)C)C(O)=C(C(N)=O)C(=O)[C@@]3(C#N)C(O)=C1C2=O [OW] | * (toxicities greater than >25 μg/ml are represented by *)
4 | Cc1csc(-c2ccc(O)c3c2C[C@@]2(N)C[C@@]4(N)[C@H](N(C)C)C(O)=C(C(N)=O)C(=O)[C@@]4(C#N)C(O)=C2C3=O)c1 [GN] | ** (toxicities less than 25 μg/mL are represented by **)
5 | CN(C)[C@@H]1C(O)=C(C(N)=O)C(=O)[C@@]2(C#N)C(O)=C3C(=O)c4c(O)ccc(-c5cnccn5)c4C[C@@]3(N)C[C@@]12N [UX] | * (toxicities greater than >25 μg/ml are represented by *)
6 | CN(C)[C@@H]1C(O)=C(C(N)=O)C(=O)[C@@]2(C#N)C(O)=C3C(=O)c4c(O)c(CN)cc(-c5cccc([N+](=O)O)c5)c4C[C@@]3(N)C[C@@]12N [KB] | ** (toxicities less than 25 μg/mL are represented by **)
7 | CCSC(=O)/C=C/c1ccc2c(c1O)C(=O)C1=C(O)[C@]3(C#N)C(=O)C(C(N)=O)=C(O)[C@@H](N(C)C)[C@]3(N)[C@@H](O)[C@]1(N)[C@H]2O [AT] | ** (toxicities less than 25 μg/mL are represented by **)
8 | CN(C)[C@@H]1C(O)=C(C(N)=O)C(=O)[C@@]2(C#N)C(O)=C3C(=O)c4c(O)ccc(C#Cc5ccc([N+](=O)O)cc5)c4C[C@@]3(N)C[C@@]12N [FU] | ** (toxicities less than 25 μg/mL are represented by **)
9 | CN(C)[C@@H]1C(O)=C(C(N)=O)C(=O)[C@@]2(C#N)C(O)=C3C(=O)c4c(cc(Br)c(N)c4O)[C@H](N)[C@@]3(N)[C@H](O)[C@@]12N [HY] | * (toxicities greater than >25 μg/ml are represented by *)
10 | CCOc1ccccc1-c1ccc(O)c2c1C[C@@]1(N)C[C@@]3(N)[C@H](N(C)C)C(O)=C(C(N)=O)C(=O)[C@@]3(C#N)C(O)=C1C2=O [ER] | ** (toxicities less than 25 μg/mL are represented by **)
11 | CN(C)[C@@H]1C(O)=C(C(N)=O)C(=O)[C@@]2(C#N)C(O)=C3C(=O)c4c(ccc(CC(=O)c5ccno5)c4O)C[C@@]3(N)C[C@@]12N [RF] | * (toxicities greater than >25 μg/ml are represented by *)
12 | CN(C)[C@@H]1C(O)=C(C(N)=O)C(=O)[C@@]2(C#N)C(O)=C3C(=O)c4c(O)c(C(C)(C)C)cc(-c5cnc6ccccc6c5)c4C[C@@]3(N)C[C@@]12N [OV] | * (toxicities greater than >25 μg/ml are represented by *)
13 | CN(C)[C@@H]1C(O)=C(C(N)=O)C(=O)[C@@]2(C#N)C(O)=C3C(=O)c4c(O)ccc(-c5ccccc5Cl)c4C[C@@]3(N)C[C@@]12N [GM] | ** (toxicities less than 25 μg/mL are represented by **)
14 | Cc1ccc(OC(=O)NCc2cc(N(C)C)c3c(c2O)C(=O)C2=C(O)[C@]4(C#N)C(=O)C(C(N)=O)=C(O)[C@@H](N(C)C)[C@]4(N)C[C@]2(N)C3)cc1 [MU] | ** (toxicities less than 25 μg/mL are represented by **)
15 | CN(C)[C@@H]1C(O)=C(C(N)=O)C(=O)[C@@]2(C#N)C(O)=C3C(=O)c4c(O)c(-c5ccccc5)cc(-c5ccccc5)c4[C@H](N)[C@@]3(N)[C@H](O)[C@@]12N [PX] | ** (toxicities less than 25 μg/mL are represented by **)
16 | CN(C)c1cc(CCCNS(C)(=O)=O)c(O)c2c1C[C@@]1(N)C[C@@]3(N)[C@H](N(C)C)C(O)=C(C(N)=O)C(=O)[C@@]3(C#N)C(O)=C1C2=O [JX] | * (toxicities greater than >25 μg/ml are represented by *)
17 | Cc1cccnc1-c1ccc(O)c2c1C[C@@]1(N)C[C@@]3(N)[C@H](N(C)C)C(O)=C(C(N)=O)C(=O)[C@@]3(C#N)C(O)=C1C2=O [UW] | * (toxicities greater than >25 μg/ml are represented by *)
18 | CN(C)c1ccc(NC(=O)NCc2cc(N(C)C)c3c(c2O)C(=O)C2=C(O)[C@]4(C#N)C(=O)C(C(N)=O)=C(O)[C@@H](N(C)C)[C@]4(N)C[C@]2(N)C3)cc1 [ND] | * (toxicities greater than >25 μg/ml are represented by *)
19 | CC(C)c1ccc(CNc2cc(N(C)C)c3c(c2O)C(=O)C2=C(O)[C@]4(C#N)C(=O)C(C(N)=O)=C(O)[C@@H](N(C)C)[C@]4(N)C[C@]2(N)C3)cc1 [TV] | ** (toxicities less than 25 μg/mL are represented by **)
20 | CN(C)[C@@H]1C(O)=C(C(N)=O)C(=O)[C@@]2(C#N)C(O)=C3C(=O)c4c(ccc(-c5ccc6c(c5)OCO6)c4O)[C@H](N)[C@@]3(N)[C@H](O)[C@@]12N [CH] | ** (toxicities less than 25 μg/mL are represented by **)

Row | SMILES | In Vitro Cytotoxicity
21 | CN(C)[C@@H]1C(O)=C(C(N)=O)C(=O)[C@@]2(C#N)C(O)=C3C(=O)c4c(O)cccc4/C(=C\c4ccc(F)cc4)[C@@]3(N)[C@H]([S+](N)[O-])[C@@]12N (stereo partly drawn) [BU] | ** (toxicities less than 25 μg/mL are represented by **)
22 | CC#Cc1ccc(O)c2c1CC1CC3[C@H](N(C)C)C(O)=C(C(N)=O)C(=O)[C@@]3(O)C(O)=C1C2=O (stereo partly drawn) [Compound HC, 7-(Propynyl)-Sancycline] | ** (toxicities less than 25 μg/mL are represented by **)
23 | CN(C)[C@@H]1C(O)=C(C(N)=O)C(=O)[C@@]2(C#N)C(O)=C3C(=O)c4c(O)cccc4/C(=C\c4ccc(Cl)cc4)[C@@]3(N)[C@H]([S+](N)[O-])[C@@]12N (stereo partly drawn) [BY] | ** (toxicities less than 25 μg/mL are represented by **)
24 | CN(C)c1ccc(-c2cc([N+](=O)O)c(O)c3c2C[C@@]2(N)C[C@@]4(N)C(N(C)C)C(O)=C(C(N)=O)C(=O)[C@@]4(C#N)C(O)=C2C3=O)cc1 (stereo partly drawn) [RE] | ** (toxicities less than 25 μg/mL are represented by **)
25 | CCc1cc(F)c(O)c2c1C[C@@]1(N)C[C@@]3(N)[C@H](N(C)C)C(O)=C(C(N)=O)C(=O)[C@@]3(C#N)C(O)=C1C2=O [IR] | ** (toxicities less than 25 μg/mL are represented by **)
26 | COc1ccc(-c2ccc(O)c3c2C[C@@]2(N)C[C@@]4(N)[C@H](N(C)C)C(O)=C(C(N)=O)C(=O)[C@@]4(C#N)C(O)=C2C3=O)cc1 [QF] | ** (toxicities less than 25 μg/mL are represented by **)
27 | CCCC#Cc1ccc(O)c2c1C[C@@]1(N)C[C@@]3(N)[C@H](N(C)C)C(O)=C(C(N)=O)C(=O)[C@@]3(C#N)C(O)=C1C2=O [KA] | ** (toxicities less than 25 μg/mL are represented by **)
28 | CC(C)NCc1ccc(-c2ccc(O)c3c2[C@H](N)[C@]2(N)C(=C(O)[C@]4(C#N)C(=O)C(C(N)=O)=C(O)[C@@H](N(C)C)[C@]4(N)[C@H]2O)C3=O)o1 [QK] | * (toxicities greater than >25 μg/ml are represented by *)
29 | CN(C)[C@@H]1C(O)=C(C(N)=O)C(=O)[C@@]2(C#N)C(O)=C3C(=O)c4c(ccc(Nc5nc(-c6ccc(F)cc6)cs5)c4O)C[C@@]3(N)C[C@@]12N [EB] | * (toxicities greater than >25 μg/ml are represented by *)
30 | CN(C)c1cc(C#Cc2ccc(F)cc2)c(O)c2c1C[C@@]1(N)C[C@@]3(N)[C@H](N(C)C)C(O)=C(C(N)=O)C(=O)[C@@]3(C#N)C(O)=C1C2=O [FF] | ** (toxicities less than 25 μg/mL are represented by **)
31 | CN(C)C1C(O)=C(C(N)=O)C(=O)[C@@]2(C#N)C(O)=C3C(=O)c4c(O)ccc(-c5ccc(NC(=O)c6ccno6)cc5)c4C[C@@]3(N)C[C@@]12N (stereo partly drawn) [RH] | * (toxicities greater than >25 μg/ml are represented by *)
32 | CN(C)[C@@H]1C(O)=C(C(N)=O)C(=O)[C@@]2(C#N)C(O)=C3C(=O)c4c(O)ccc(-c5ccncc5)c4C[C@@]3(N)C[C@@]12N [UN] | ** (toxicities less than 25 μg/mL are represented by **)
33 | CN(C)CCNC(=O)c1ccc(-c2ccc(O)c3c2C[C@@]2(N)C[C@@]4(N)[C@H](N(C)C)C(O)=C(C(N)=O)C(=O)[C@@]4(C#N)C(O)=C2C3=O)cc1 [PC] | * (toxicities greater than >25 μg/ml are represented by *)
34 | CC(C)NCc1ccc(-c2ccc(O)c3c2C[C@@]2(N)C[C@@]4(N)[C@H](N(C)C)C(O)=C(C(N)=O)C(=O)[C@@]4(C#N)C(O)=C2C3=O)cc1 [OT] | * (toxicities greater than >25 μg/ml are represented by *)
35 | CN(C)[C@@H]1C(O)=C(C(N)=O)C(=O)[C@@]2(C#N)C(O)=C3C(=O)c4c(ccc(/C=C/c5ccc(F)cc5)c4O)[C@H](N)[C@@]3(N)[C@H](O)[C@@]12N [CE] | ** (toxicities less than 25 μg/mL are represented by **)
36 | CCc1ccc(O)c2c1C[C@@]1(N)C[C@@]3(N)[C@H](N(C)C)C(O)=C(C(N)=O)C(=O)[C@@]3(C#N)C(O)=C1C2=O [GE] | ** (toxicities less than 25 μg/mL are represented by **)
37 | CN(C)[C@@H]1C(O)=C(C(N)=O)C(=O)[C@@]2(C#N)C(O)=C3C(=O)c4c(ccc(NC5CCC(Cc6ccccc6)CC5)c4O)[C@H](N)[C@@]3(N)[C@H](O)[C@@]12N (stereo partly drawn) [RS] | * (toxicities greater than >25 μg/ml are represented by *)
38 | CC(=O)c1cc(C(C)=O)c2c(c1O)C(=O)C1=C(O)[C@]3(C#N)C(=O)C(C(N)=O)=C(O)[C@@H](N(C)C)[C@]3(N)C[C@]1(N)C2 [LL] | * (toxicities greater than >25 μg/ml are represented by *)
39 | CCc1cc(-c2ccc(N(C)C)cc2)c2c(c1O)C(=O)C1=C(O)[C@]3(C#N)C(=O)C(C(N)=O)=C(O)[C@@H](N(C)C)[C@]3(N)C[C@]1(N)C2 [PE] | ** (toxicities less than 25 μg/mL are represented by **)
